The values below come from PMC4690121, “Interaction of Citrinin with Human Serum Albumin” (Toxins, 2015).

Like-named read-outs stand apart in the source and are kept apart here.

For data set [1], the target named is T1, human serum albumin (HSA) (Homo sapiens, UniProt P02768). As to the kind of experiment: Fluorescence polarization displacement of OTA from HSA. The format is binding. Also noted: purchased Sigma-Aldrich. To be noted: OTA 1 μM, HSA 1.4 μM, competitor 1–30 μM. In general terms: Polarisation of emitted light reports the rotation of a fluorescent probe.
Data set [2] has as its target T1, human serum albumin (HSA). The method, then: Before ultrafiltration samples contained 1 μM CIT with or without HSA (1, 2.5 or 5 μM), while displacement of CIT by WAR (5 and 10 μM) or OTA (2.5 and 5 μM) was investigated in the presence of 1 μM CIT and 5 μM HSA. During ultrafiltration experiments Amicon Ultra-4 centrifugal filter units (with 10 kDa molecular weight cut-off value; from Merck Millipore, Darmstadt, Germany) were applied. In order to remove glycerol from the filters, filter units were washed with 3 mL water and 3 mL PBS. Thereafter, 2.5 mL of the samples were transferred into the filter and Amicon tubes were centrifuged at 7500 g for 10 min at 25 °C (in Hettich Universal 32R centrifuge with fixed-angle rotor). Then 2 mL quantity of filtrate was transferred into 5-mL Eppendorf tube, after which 10 μL 6 M HCl solution was added to the sample in order to adjust the pH (to approximately 2). […] Final CIT concentrations were determined (applying calibration curve at concentration range 0.1–2.0 μM) by Hitachi F-4500 fluorescence spectrophotometer with the measurement of the fluorescence signal of CIT itself, using 330 nm and 500 nm as excitation and emission wavelengths, respectively.

Data set [3] concerns the target T1, human serum albumin (HSA). As to the kind of experiment: Steady-state fluorescence displacement of warfarin from HSA by CIT. To be noted: warfarin 1 μM, HSA 3.5 μM, CIT 0.25–5.0 μM. Also noted: purchased Sigma-Aldrich. The format is binding.
Data set [4] has as its target T2, bovine serum albumin (BSA) (Bos taurus, UniProt P02769).
T2 construct: purchased Sigma-Aldrich
As to the kind of experiment: Fluorescence quenching of albumin by CIT, binding constant. To be noted: PBS pH 7.4, 25 °C; read-out: logK (±SD) of CIT-BSA complex (converted). The method, then:
(§1) A Fluorolog τ3 spectrofluorometric system (Jobin-Yvon/SPEX) and Hitachi F-4500 fluorescence spectrophotometer were used for steady-state fluorescence and fluorescence polarization measurements. All analyses were performed at +25 °C except thermodynamic studies.
(§2) Binding constants (K) were determined using fluorescence quenching method, where increasing CIT concentrations (0–5 μM) were added to standard amount of albumin (2 μM). Fluorescence emission spectra were recorded in PBS buffer (pH 7.4; λexc = 280 nm). Similarly to our previous studies, K values of CIT-albumin complexes were quantified by non-linear fitting with Hyperquad2006 program package (Protonic Software) assuming 1:1 stoichiometry: (1) I=I0+IAC−I0/2[A]0([A]0+[C]0+1/K−([A]0+[C]0+1/K)^2−4[A]0[C]0) where I denotes the fluorescence emission intensity of albumin in presence of CIT; I0 denotes the fluorescence emission intensity of albumin in absence of CIT; IAC denotes the fluorescence emission intensity of pure albumin-CIT complex (which is calculated by the Hyperquad2006 software); K denotes the binding constant; while [A]0 and [C]0 denote the total concentrations of albumin and CIT, respectively.

A further data set has as its target T3, rat serum albumin (RSA) (Rattus norvegicus, UniProt P02770).
T3 construct: purchased Sigma-Aldrich
Described as above. To be noted: PBS pH 7.4, 25 °C; read-out: logK (±SD) of CIT-RSA complex (converted). The method, then:
as §1, §2

Data set [5] has as its target T4, porcine serum albumin (PSA) (Sus scrofa, UniProt P08835).
T4 construct: purchased Sigma-Aldrich
The description is as above. To be noted: PBS pH 7.4, 25 °C; read-out: logK (±SD) of CIT-PSA complex (converted). The method, then: as §1, §2

In the next data set the test system is MDCK cells. In words: MDCK cell viability (calcein acetoxymethyl ester). The format is cell-based. To be noted: 24 h. As for the experimental part:
MDCK (immortalized, epithelial-kidney, ATCC: CCL 34) cells were cultured in DMEM containing FBS (10%), penicillin (100 U/mL) and streptomycin (100 μg/mL), in 25 cm^2 sterile plastic flasks (VWR) and in 24-well sterile plastic plates (VWR). In order to test the effect of CIT on cell viability in absence and presence of albumin, cell media with and without 10% FBS or 40 g/L HSA were also prepared. After 24-h treatment of MDCK cells (in 24-well plates) with CIT (0–100 μM) in absence and presence of FBS (10%) or HSA (40 g/L), cells were washed three times with 500 μL PBS. Then PBS was replaced with 500 µL Hanks + glucose buffer containing 1.6 µM calcein acetoxymethyl ester and cells were incubated for 40 min at 37 °C in the dark. Thereafter, wells were washed again with 500 μL ice-cold PBS and the emptied wells were filled with 500 μL of 5% perchloric acid (PCA) after which cells were incubated for 15 min at room temperature. 20 μL PCA extract was added to 180 μL of 1 M NaOH using black 96-well optical plates (VWR) for fluorescence measurement of the formed calcein (λexc = 490 nm, λem = 520 nm). Fluorescence intensities were measured with a microplate reader (Perkin Elmer EnSpire Multimode reader).

In data set [6] the target is T1, human serum albumin (HSA). In words: Fluorescence quenching of albumin by CIT, binding constant and van't Hoff thermodynamics. More on the design: purchased Sigma-Aldrich. As for the experimental part:
as §1
as §2, with “Fluorescence emission spectra were recorded in PBS buffer (pH 7.4; λexc = 280 nm).” left out
To get deeper insight into the formation of CIT-HSA complex, quenching experiments were also performed at different temperatures (25, 30, 35, and 40 °C). Thermodynamic parameters were quantified applying the van’t Hoff equation: (2) lnK=−ΔG/RT=−ΔH/RT+ΔS/R where ΔG is the Gibbs free energy change, ΔS is the entropy change, while ΔH is the enthalpy change associated with the complex formation.

For data set [7], the target named is T1, human serum albumin (HSA). To be noted: cited from earlier work.
Where [8] appears, read: van't Hoff, 25-40 °C quenching data.

T1 sequence (P02768 25-609): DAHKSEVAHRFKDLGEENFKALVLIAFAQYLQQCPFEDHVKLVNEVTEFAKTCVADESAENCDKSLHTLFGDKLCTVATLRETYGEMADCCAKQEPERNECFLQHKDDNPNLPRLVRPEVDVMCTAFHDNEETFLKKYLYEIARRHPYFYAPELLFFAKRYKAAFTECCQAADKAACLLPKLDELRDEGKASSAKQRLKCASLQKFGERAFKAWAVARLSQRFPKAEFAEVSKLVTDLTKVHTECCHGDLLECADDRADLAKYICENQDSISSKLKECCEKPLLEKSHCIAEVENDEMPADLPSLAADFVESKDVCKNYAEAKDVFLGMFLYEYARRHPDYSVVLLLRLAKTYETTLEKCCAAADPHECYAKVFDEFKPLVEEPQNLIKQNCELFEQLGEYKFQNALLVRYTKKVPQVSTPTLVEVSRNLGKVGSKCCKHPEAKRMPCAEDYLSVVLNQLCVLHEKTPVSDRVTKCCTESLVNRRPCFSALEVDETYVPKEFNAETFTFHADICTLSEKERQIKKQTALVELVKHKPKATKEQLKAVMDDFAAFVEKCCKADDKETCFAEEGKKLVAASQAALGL
T3 sequence (P02770 25-608): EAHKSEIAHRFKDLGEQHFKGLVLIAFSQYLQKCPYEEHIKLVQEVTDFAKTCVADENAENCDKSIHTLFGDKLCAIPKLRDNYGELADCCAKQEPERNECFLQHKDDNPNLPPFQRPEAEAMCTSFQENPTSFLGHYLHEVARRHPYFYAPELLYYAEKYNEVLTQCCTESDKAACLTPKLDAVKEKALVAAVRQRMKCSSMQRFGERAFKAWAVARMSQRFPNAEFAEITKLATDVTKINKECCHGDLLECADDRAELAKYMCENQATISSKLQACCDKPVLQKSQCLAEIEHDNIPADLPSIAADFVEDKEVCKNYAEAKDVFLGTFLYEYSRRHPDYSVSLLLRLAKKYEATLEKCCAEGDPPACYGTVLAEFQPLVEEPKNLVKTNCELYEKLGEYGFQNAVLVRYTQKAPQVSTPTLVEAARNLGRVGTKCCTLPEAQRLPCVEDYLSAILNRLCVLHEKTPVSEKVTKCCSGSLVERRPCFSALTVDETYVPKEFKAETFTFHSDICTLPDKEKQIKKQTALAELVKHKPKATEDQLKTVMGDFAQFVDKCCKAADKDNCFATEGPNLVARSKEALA
T4 sequence (P08835 25-607): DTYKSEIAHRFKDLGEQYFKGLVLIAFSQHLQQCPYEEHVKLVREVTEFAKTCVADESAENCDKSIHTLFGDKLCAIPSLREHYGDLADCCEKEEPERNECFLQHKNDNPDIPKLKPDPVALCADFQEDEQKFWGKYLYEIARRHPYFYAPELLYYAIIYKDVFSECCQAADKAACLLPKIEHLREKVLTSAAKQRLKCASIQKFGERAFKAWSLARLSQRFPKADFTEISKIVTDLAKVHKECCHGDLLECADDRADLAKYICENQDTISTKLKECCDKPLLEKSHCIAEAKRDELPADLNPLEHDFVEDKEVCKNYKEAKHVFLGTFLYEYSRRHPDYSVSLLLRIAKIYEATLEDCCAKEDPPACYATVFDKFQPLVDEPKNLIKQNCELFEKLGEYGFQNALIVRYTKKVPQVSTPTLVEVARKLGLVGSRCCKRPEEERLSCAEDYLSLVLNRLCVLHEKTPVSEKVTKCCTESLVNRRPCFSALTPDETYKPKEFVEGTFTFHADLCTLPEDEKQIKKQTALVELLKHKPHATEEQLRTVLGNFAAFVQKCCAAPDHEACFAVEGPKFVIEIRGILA
T2 sequence (P02769 25-607): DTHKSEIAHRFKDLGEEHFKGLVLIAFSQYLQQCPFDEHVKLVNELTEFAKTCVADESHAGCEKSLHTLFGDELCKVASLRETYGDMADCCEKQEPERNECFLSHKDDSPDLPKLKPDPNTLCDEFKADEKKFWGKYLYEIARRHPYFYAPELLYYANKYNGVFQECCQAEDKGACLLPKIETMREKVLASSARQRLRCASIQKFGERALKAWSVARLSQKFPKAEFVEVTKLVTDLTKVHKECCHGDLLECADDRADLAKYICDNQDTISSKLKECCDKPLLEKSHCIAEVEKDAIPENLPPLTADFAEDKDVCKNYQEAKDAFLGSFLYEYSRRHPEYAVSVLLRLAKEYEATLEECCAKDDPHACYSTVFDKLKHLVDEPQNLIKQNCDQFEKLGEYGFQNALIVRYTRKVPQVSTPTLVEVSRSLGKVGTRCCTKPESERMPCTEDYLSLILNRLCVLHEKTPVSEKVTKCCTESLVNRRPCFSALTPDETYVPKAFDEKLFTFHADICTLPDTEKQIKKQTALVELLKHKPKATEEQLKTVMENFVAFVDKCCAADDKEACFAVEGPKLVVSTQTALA

Regarding `CC1=C2C(=CO[C@H](C)[C@H]2C)C(O)=C(C(=O)O)C1=O` [CIT, Citrinin], the “fluorescence polarization of OTA (displacement of OTA)” value in data set [1] is “decrease of fluorescence polarization of OTA in a concentration dependent fashion”. Moreover, in [2] (1 μM CIT, HSA 1, 2.5 and 5 μM, 10 kDa cut-off), the “CIT in the filtrate in presence of HSA” value is on record as “significant decrease”. Moreover, in [3], the “fluorescence intensity of HSA-bound warfarin (displacement of warfarin)” value is “significant decrease”. Moreover, the Kd in data set [4] is 8.91 µM; at rat serum albumin (RSA), 3.16 µM; in [5], 11 µM; in data set [6] (PBS pH 6.0, 25 °C, read-out: logK of CIT-HSA complex (converted)), 5.62 µM; in data set [6] (PBS pH 7.0, 25 °C, read-out: logK of CIT-HSA complex (converted)), 5.25 µM; in data set [6] (PBS pH 7.4, 25 °C, read-out: logK (±SD) of CIT-HSA complex (converted)), 4.79 µM. The Kd in [6] (PBS pH 7.4, 30 °C, read-out: logK (±SD) of CIT-HSA complex (converted)) was 5.5 µM; in [6] (PBS pH 7.4, 35 °C, read-out: logK (±SD) of CIT-HSA complex (converted)), 6.46 µM; in [6] (PBS pH 7.4, 40 °C, read-out: logK (±SD) of CIT-HSA complex (converted)), 7.76 µM; in [6] (PBS pH 7.8, 25 °C, read-out: logK of CIT-HSA complex (converted)), 7.59 µM. Further, the “CIT-induced viability loss in presence of FBS” value with MDCK cells (100 μM CIT + 10% FBS) is reported as “considerably alleviated”. The “CIT-induced viability loss in presence of HSA” value in the data set with MDCK cells (100 μM CIT + 40 g/L HSA) was “considerably alleviated”. In the data set with MDCK cells (100 μM CIT, absence of FBS), the “decrease of cell viability” value is listed as “approximately 50%”. Further, the “∆H of CIT-HSA complex formation” value in data set [6] (setting [8]) was -5.772 kcal/mol. The “∆S of CIT-HSA complex formation” value in data set [6] (setting [8]) is recorded as “+20.90 J·mol^−1·K^−1”.
Turning to `C[C@@H]1Cc2c(Cl)cc(C(=O)N[C@@H](Cc3ccccc3)C(=O)O)c(O)c2C(=O)O1` [OTA, ochratoxin A], the “displacement of CIT from HSA” value in data set [2] (1 μM CIT + 5 μM HSA, 5 μM OTA) is “almost complete displacement”. For the same compound, the “change of CIT concentration in the filtrate caused by the competitor” value in [2] (1 μM CIT + 5 μM HSA, warfarin or ibuprofen 5 or 10 μM, OTA 2.5 and 5 μM) is recorded as “significant elevation”. In addition, the “logK of OTA-HSA complex” value in [7] (25 °C) was 7.4–7.6. The “complex stability with HSA compared to BSA” value in data set [7] (HSA vs BSA) is given as 15 fold. The “complex stability with HSA compared to RSA” value in data set [7] (HSA vs RSA) was 30 fold.
